# How the values were obtained:
# Aβ1-40 = test: Measurement of Aβ1-40 in culture medium of 7W WT APP751 CHO cells by ELISA; assay type: cell-based, Chinese hamster; conditions: for activity at 5 µM: Cricetulus griseus, Table 1, 5 μM test compound, CHO cells stably transfected with human APP751, culture medium, ELISA, control DMSO, 0 = no detectable amount; for Aβ1-40 (% of control): CHO cells that overexpress APP751, zero = below the detection limit of the assay
# Aβ1-42 = test: Measurement of Aβ1-42 in culture medium of 7W WT APP751 CHO cells by ELISA; assay type: cell-based, Chinese hamster; conditions: for activity at 5 µM: Cricetulus griseus, Table 1, 5 μM test compound, CHO cells stably transfected with human APP751, culture medium, ELISA, control DMSO, 0 = no detectable amount, read-out: Aβ1-42 (% of control); for Aβ1-42 (% of control): CHO cells that overexpress APP751, zero = below the detection limit of the assay
# 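Further: 5 µM test compound but RI-coded compounds at 10 µM for 24 hours.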
SMILES,activity at 5 µM (Aβ1-40),activity at 5 µM (Aβ1-42),Aβ1-40 (% of control) (Aβ1-40),Aβ1-42 (% of control) (Aβ1-42)
"COC(=O)C1=C(C)NC2=C(C(=O)CC(c3cccs3)C2)C1c1cc(OC)ccc1OC (stereo not shown) [ST052389, methyl 4-(2,5-dimethoxyphenyl)-2-methyl-5-oxo-7-(2-thienyl)-1,4,6,7,8-pentahydroquinoline-3-carboxylate]",78.3%,44.9%,,
"CCOC(=O)C1=C(N)n2c(s/c(=C\c3ccccc3OC)c2=O)=C(S(=O)(=O)c2ccccc2)C1c1ccccc1OC (stereo not shown) [ST011325, ethyl 5-amino-7-(2-methoxyphenyl)-2-[(2-methoxyphenyl)methylene[-3-oxo-8-(phenylsulfonyl)-4,7-dihydro-1,3-thiazolidino[3,2-a]pyridine-6-carboxylate]",,,62.35 % of control,99 % of control
"CCCCOc1ccccc1C1C(C(=O)OCCc2ccccc2)=C(C)NC2=C1C(=O)CC(C)(C)C2 (stereo not shown) [ST014907, 2-phenylethyl 4-(2-butoxyphenyl)-2,7,7-trimethyl-5-oxo-1,4,6,7,8-pentahydroquinoline-3-carboxylate]",34.6%,83.5%,,
CC1=C(C(=O)Nc2ccccc2)C(c2cccs2)C(C#N)=C(SCC(=O)N2CCCCCCCCCCC2)N1 (stereo not shown) [RI_32],,,62.9 % of control,62.8 % of control
"CCOC(=O)C1=CN(c2cc(C)ccc2C)C=C(C(=O)OCC)C1c1cccc(OC)c1OC [ST052450, ethyl 4-(2,3-dimethoxyphenyl)-1-(2,5-dimethylphenyl)-5-(ethoxycarbonyl)-1,4-dihydropyridine-3-carboxylate]",,,5.249 % of control,12.04 % of control
"CCOCCOC(=O)C1=C(C)NC2=C(C(=O)CC(c3ccccc3)C2)C1c1ccccc1F (stereo not shown) [ST017312, 2-ethoxyethyl 4-(2-fluorophenyl)-2-methyl-5-oxo-7-phenyl-1,4,6,7,8-pentahydroquinoline-3-carboxylate]",15.3%,71.2%,,
"CC1=C(C(=O)Nc2ccccc2)C(c2c(Cl)cccc2Cl)C(C(=O)Nc2ccccc2)=C(C)N1 [ST217080, [4-(2,6-dichlorophenyl)-2,6-dimethyl-5-(N-phenylcarbamoyl)(3-1,4-dihydropyridyl)]-N-benzamide]",,,65.54 % of control,0 % of control
"N#CC1=C(N)Nc2c(c(=O)oc3ccccc23)C1c1ccc(Br)cc1 (stereo not shown) [ST014147, 2-amino-4-(4-bromophenyl)-5-oxo-1,4-dihydrochromeno[4,3-b]pyridine-3-carbonitrile]",,,82.09 % of control,68.55 % of control
CC1=C(C(=O)Nc2ccccc2)C(c2ccsc2)C(C#N)=C(SCC(=O)Nc2ccc(Cl)c(C)c2)N1 (stereo not shown) [RI_83],,,44.1 % of control,55.4 % of control
"CCOC(=O)C1=C(C)NC2=C(C(=O)CCC2)C1c1ccc(Cl)cc1 (stereo not shown) [ST024440, ethyl 4-(4-chlorophenyl)-2-methyl-5-oxo-1,4,6,7,8-pentahydroquinoline-3-carboxylate]",63.1%,97.7%,,
"CCCCCOC(=O)C1=C(C)NC2=C(C(=O)CC(C)(C)C2)C1c1ccc(Cl)cc1 (stereo not shown) [ST013054, pentyl 4-(4-chlorophenyl)-2,7,7-trimethyl-5-oxo-1,4,6,7,8-pentahydroquinoline-3-carboxylate]",0%,8.36%,,
"CCCCOC(=O)C1=C(C)NC2=C(C(=O)CC(C)(C)C2)C1c1cc2c(cc1[N+](=O)[O-])OCO2 (stereo not shown) [ST216053, butyl 2,7,7-trimethyl-4-(6-nitro(2H-benzo[d]1,3-dioxolen-5-yl))-5-oxo-1,4,6,7,8-pentahydroquinoline-3-carboxylate]",22.2%,6.37%,,
"CC1=C(C(=O)OCCc2ccccc2)C(c2cccc(Cl)c2)C2=C(CC(C)(C)CC2=O)N1 (stereo not shown) [ST015084, 2-phenylethyl 4-(3-chlorophenyl)-2,7,7-trimethyl-5-oxo-1,4,6,7,8-pentahydroquinoline-3-carboxylate]",59.5%,80.2%,,
"CCOc1ccccc1C1C(C(=O)OCCOc2ccccc2)=C(C)NC2=C1C(=O)CC(C)(C)C2 (stereo not shown) [ST052381, 2-phenoxyethyl 4-(2-ethoxyphenyl)-2,7,7-trimethyl-5-oxo-1,4,6,7,8-pentahydroquinoline-3-carboxylate]",45.1%,62%,,
CCCCCCNC(=O)CSC1=C(C#N)C(c2cccs2)C(C(=O)Nc2ccccc2)=C(C)N1 (stereo not shown) [RI_26],,,37.6 % of control,26.7 % of control
"CCOC(=O)C1=C(C)NC2=C(C(=O)CC(C)(C)C2)C1c1cccc(OC)c1OC (stereo not shown) [ST013184, ethyl 4-(2,3-dimethoxyphenyl)-2,7,7-trimethyl-5-oxo-1,4,6,7,8-pentahydroquinoline-3-carboxylate]",73.7%,60.3%,,

SMILES,activity at 5 µM (Aβ1-40),activity at 5 µM (Aβ1-42),Aβ1-40 (% of control) (Aβ1-40),Aβ1-42 (% of control) (Aβ1-42)
"COC(=O)C1=CN(C23CC4CC(CC(C4)C2)C3)C=C(C(=O)OC)C1c1cccc([N+](=O)[O-])c1 [ST045329, methyl 1-adamantanyl-5-(methoxycarbonyl)-4-(3-nitrophenyl)-1,4-dihydropyridine-3-carboxylate]",,,82.6 % of control,68.52 % of control
"COc1cc(C2C(C(=O)OCc3ccccc3)=C(C)NC3=C2C(=O)CCC3)cc(Br)c1O (stereo not shown) [ST013249, phenylmethyl 4-(3-bromo-4-hydroxy-5-methoxyphenyl)-2-methyl-5-oxo-1,4,6,7,8-pentahydroquinoline-3-carboxylate]",0%,68%,,
"COC(=O)C1=C(C)NC2=C(C(=O)CC(c3cccs3)C2)C1c1ccc(Cl)c(Cl)c1 (stereo not shown) [ST052414, methyl 4-(3,4-dichlorophenyl)-2-methyl-5-oxo-7-(2-thienyl)-1,4,6,7,8-pentahydroquinoline-3-carboxylate]",70.2%,66.9%,,
"COC(=O)C1=C(C)NC2=C(C(=O)CC(c3cccs3)C2)C1c1ccc(C)s1 (stereo not shown) [ST052308, methyl 2-methyl-4-(5-methyl(2-thienyl))-5-oxo-7-(2-thienyl)-1,4,6,7,8-pentahydroquinoline-3-carboxylate]",48.4%,74.2%,,
"COc1ccc(C2C(C#N)=C(N)N(c3ccccc3Cl)C3=C2C(=O)CCC3)cc1O (stereo not shown) [ST051958, 2-amino-1-(2-chlorophenyl)-4-(3-hydroxy-4-methoxyphenyl)-5-oxo-1,4,6,7,8-pentahydroquinoline-3-carbonitrile]",56.6%,80.2%,,
"CCOc1ccc(C2C(C(=O)OCCc3ccccc3)=C(C)NC3=C2C(=O)CC(C)(C)C3)cc1 (stereo not shown) [ST015087, 2-phenylethyl 4-(4-ethoxyphenyl)-2,7,7-trimethyl-5-oxo-1,4,6,7,8-pentahydroquinoline-3-carboxylate]",35.3%,43.7%,,
"CC1=C(C(=O)OCc2ccccc2)C(c2ccccc2Br)C2=C(CCCC2=O)N1 (stereo not shown) [ST052408, phenylmethyl 4-(2-bromophenyl)-2-methyl-5-oxo-1,4,6,7,8-pentahydroquinoline-3-carboxylate]",63%,63.4%,,
"CC1=C(C(=O)OCCc2ccccc2)C(c2ccccc2OC(C)C)C2=C(CC(C)(C)CC2=O)N1 (stereo not shown) [ST015049, 2-phenylethyl 2,7,7-trimethyl-4-[2-(methylethoxy)phenyl]-5-oxo-1,4,6,7,8-pentahydroquinoline-3-carboxylate]",0%,62.4%,,
"CC1=C(C(=O)OCC2CCCO2)C(c2cccc(Cl)c2)C2=C(CC(c3cccs3)CC2=O)N1 (stereo not shown) [ST051818, oxolan-2-ylmethyl 4-(3-chlorophenyl)-2-methyl-5-oxo-7-(2-thienyl)-1,4,6,7,8-pentahydroquinoline-3-carboxylate]",37%,72.9%,,
"CCOC(=O)C1=C(C)NC(C)=C(C(=O)OC)C1c1ccc(Br)cc1 (stereo not shown) [ST063245, ethyl 4-(4-bromophenyl)-5-(methoxycarbonyl)-2,6-dimethyl-1,4-dihydropyridine-3-carboxylate]",,,8.423 % of control,0 % of control
"CCOC(=O)C1=C(C)NC2=C(C(=O)CCC2)C1c1ccc(Cl)cc1Cl (stereo not shown) [ST024444, ethyl 4-(2,4-dichlorophenyl)-2-methyl-5-oxo-1,4,6,7,8-pentahydroquinoline-3-carboxylate]",37.4%,16.6%,,
"CC1=C(C(=O)OCC(C)C)C(c2ccc(Cl)cc2)C2=C(CC(c3ccc(Cl)cc3)CC2=O)N1 (stereo not shown) [ST017070, 2-methylpropyl 4,7-bis(4-chlorophenyl)-2-methyl-5-oxo-1,4,6,7,8-pentahydroquinoline-3-carboxylate]",55.4%,89.1%,,
"COC(=O)C1=C(C)NC2=C(C(=O)CCC2)C1c1ccc(Br)cc1 (stereo not shown) [ST028547, methyl 4-(4-bromophenyl)-2-methyl-5-oxo-1,4,6,7,8-pentahydroquinoline-3-carboxylate]",72.1%,45.3%,,
"CC1(C)CC(=O)C2=C(C1)N(c1cc(C(F)(F)F)ccc1Cl)C(N)=C(C#N)C2c1ccc(Br)s1 (stereo not shown) [ST046868, 2-amino-4-(5-bromo(2-thienyl))-1-[2-chloro-5-(trifluoromethyl)phenyl]-7,7-dimethyl-5-oxo-1,4,6,7,8-pentahydroquinoline-3-carbonitrile]",29.8%,84%,,
"CCSCCOC(=O)C1=C(C)NC2=C(C(=O)CC(C)(C)C2)C1c1cccc(C)c1 (stereo not shown) [ST052457, 2-ethylthioethyl 2,7,7-trimethyl-4-(3-methylphenyl)-5-oxo-1,4,6,7,8-pentahydroquinoline-3-carboxylate]",38.1%,63.9%,,
"CCSCCOC(=O)C1=C(C)NC2=C(C(=O)CCC2)C1c1ccc(C(=O)OC)cc1 (stereo not shown) [ST017106, methyl 4-{3-[(2-ethylthioethyl)oxycarbonyl]-2-methyl-5-oxo-4-1,4,6,7,8-pentahydroquinolyl}benzoate]",36.8%,0%,,

# From patent US20100119599A1 (ARCHER PHARMACEUTICALS, INC., priority 2006, published 2010)
